Values quoted from earlier work as cited in patent US7947467B2, “Methods for monitoring pathological conditions in a subject” (Common Sense Ltd., priority 2001, dated 2011).

Settings: in aqueous solution

Molecule	pKa
Nitrazine Yellow	6.6

Settings: not given

Molecule	aqueous pH transition range
Cc1cc2nc3ccc(N(C)C)cc3nc2cc1N.Cl [Neutral Red]	6.8-8.0
Cc1cc(C2(c3cc(C)c(O)c(Br)c3C)OS(=O)(=O)c3ccccc32)c(C)c(Br)c1O [Bromoxylenol Blue]	6.0-7.6
Cc1cc(C2(c3cc(C)c(O)c(Br)c3)OS(=O)(=O)c3ccccc32)cc(Br)c1O [Bromcresol Purple]	5.2-6.8
Cc1cc(O)ccc1C1(c2ccc(O)cc2C)OS(=O)(=O)c2ccccc21 [m-Cresol purple]	7.4-9.0
Nitrazine Yellow	6.0-7.2
Cc1cc(O)c(C(C)C)cc1C1(c2cc(C(C)C)c(O)cc2C)OS(=O)(=O)c2ccccc21 [Thymol Blue]	8.0-9.2
O=C1c2ccccc2C(=O)c2c1ccc(O)c2O [Alizarin]	5.5-6.8
Cc1cc(C2(c3ccc(O)c(C)c3)OS(=O)(=O)c3ccccc32)ccc1O [Cresol Red]	7.2-8.8
Cc1c(C2(c3cc(C(C)C)c(O)c(Br)c3C)OS(=O)(=O)c3ccccc32)cc(C(C)C)c(O)c1Br [Bromthymol Blue]	6.0-7.6
Cc1cc(C2(c3cc(C)c(O)cc3C)OS(=O)(=O)c3ccccc32)c(C)cc1O [Xylenol Blue]	8.0-9.6
O=S1(=O)OC(c2ccc(O)c(Cl)c2)(c2ccc(O)c(Cl)c2)c2ccccc21 [Chlorophenol Red]	5.2-8.8
